The values below come from publication PMC9953468, “In Silico, In Vitro, and Ex Vivo Biological Activity of Some Novel Mebeverine Precursors” (Biomedicines, 2023).

Structures are written as SMILES. “Also recorded” adds a separate entry of the source. Marks after values point to notes of the source that are not given here.

Experiment [1] has as its system SM preparations from the corpus gastric muscle. In words: Ex vivo bioelectrical activity of smooth muscle preparations, single sucrose gap method. The arrangement: species or system Wistar rats. The conditions noted are these: 5 × 10^−5 M; for Amplitude of slow waves, Measured value / Amplitude of spike potentials, Measured value / Number of slow waves, Measured value / Number of spike potentials, Measured value: 10 min, n = 7, mean ± SEM. Here is the method:
Adult male Wistar rats weighing 280–300 g were used. Animals were housed in standard laboratory conditions (23 to 25 °C, 50–55% humidity, 12/12 h light/dark cycle), while food and water were provided ad libitum.
Circular SM preparations were dissected from the corpus gastric muscle (26–28 mm long and 0.8–0.9 mm wide; without mucosa). Two or three muscle strips were taken from the rat stomach. The number of SM preparations used for each data point is indicated by n. After dissection, the tissues must prevent loss of viability, so during the dissection, the tissues were systematically moistened with a solution (NaCl:KCl:CaCl2 in ratio 27.2:1.1:1) prepared at 4 °C.
The BEA of SM preparations was investigated by means of the single sucrose gap method with silver non-polarizable freshly chlorinated electrodes. The muscle strips were divided into 3 zones: two electrode sections were flushed with isotonic KCl solution and Krebs solution (pH 7.3), respectively, and separated by a sucrose layer of high electric resistance. Krebs contained the following (in mM): NaCl 120; KCl 5.9; CaCl2 2.5; MgCl2 1.2; NaH2PO4 1.2; NaHCO3 15.4; glucose 11.5. All the ingredients for this solution were of analytical grade and obtained from Merck (Darmstadt, Germany). Deionized water (18.2 mX/cm^2) was used thoroughly. The KCl solution is similar to the Krebs solution but with an equimolar substitution of NaCl with KCl. An isotonic sucrose solution, due to its very high specific resistance (about 10^6 Ω·cm), provides the best possible separation of the sucrose solution from the physiological solution in the “normal” pool, on the one hand, and the solution providing a zero value of the membrane potential in the pool with another recording electrode.
The inflow rate of each solution (Krebs, KCl, and isotonic sucrose solution) was controlled by a needle valve and continuously aerated with a mixture of 95% O2 and 5% CO2, and the temperature was maintained at 37 °C. A potential difference between the two end sections of the gap (control conditions) was achieved by means of silver non-polarizable, freshly chlorinated electrodes and after a 40-min period of adaptation and stabilization was accepted as the initial (control). The Krebs solution was changed several times during the adaptation period. The viability of the SM preparations was periodically tested by treatment with 1 × 10^−6 M ACh.
The membrane potential value was visualized by means of a Linseis recorder (Selb, Germany). A pair of measuring electrodes is located on both sides of the sucrose sections. The pH (pH 7.3; 37 °C) of the Krebs bathing solution was measured before each experiment by pH-meter HI5521 (Hanna Instruments Inc., Woonsocket, RI, USA). […]
The new substances were dissolved initially in dimethyl sulphoxide (DMSO) to prepare a 5 × 10^−2 M stock solution. Further dilutions were made in distilled deionized water and were applied by adding aliquots of their concentrated solutions to the tissue bath.

Experiment [2] has as its system 5-HT3 receptor. Description: Immunohistochemical analysis of 5-HT3 expression in gastric SM strips. The arrangement: species or system Wistar rats; key to 5-HT3 expression, 5-HT / 5-HT3 expression, Response to Compound: −: absent; +: low; ++: moderate; +++: strong. The conditions noted are these: for 5-HT3 expression, Response to Compound: SM preparations incubated with the compound; for 5-HT3 expression in SM preparations: immunohistochemical staining after 1 h incubation, in words. Here is the method:
[…] Then, each SM strip was fixed in 10% neutral buffer formalin for 24–48 h and submitted for standard processing with hematoxylin and eosin staining.
The SM fragments from a rat’s gastric wall were fixed in a 10% neutral formalin solution and embedded in paraffin. Paraffin sections of 5 μm thickness were subjected to hematoxylin and eosin (H-E) staining for histochemical analysis.
Sections of the SM fragments from the wall of a rat’s stomach with a thickness of 5 µm were deparaffinized, then subjected to antigenic detection of the epitopes with citrate buffer, and an endogenous peroxidase blockade was made with hydrogen […] 3%, a kit was used to block the endogenous biotin, and a reagent was used to block non-specific binding (Superblock, Scy Tek, Santa Cruz Biotech. Inc. Heidelberg, Germany) follows incubate for 24 h (at 4 °C) with monoclonal mouse anti-5-HT3, next incubated with a secondary antibody: biotinylated anti-rabbit for 10 min at room temperature. The reaction was visualized with 3,3′-diaminobenzidine tetrachloride and counterstained with Mayer’s hematoxylin.
A quantitative and statistical analysis of immunohistochemical reaction using the Olympus DP-Soft image system (version 4.1 for Windows) was carried out on a Microphot-SA (Nikon, Japan) microscope equipped with a Camedia-5050 Z digital camera (Olympus, Japan). The analysis was performed on sections from the SM strips from the stomach of Wistar rats (n = 6 for each group). Five sections of the SM strips were measured, and the percentage of cells expressing 5-HT3 in the circular and longitudinal layer of SM cells, as well as in the myenteric plexus of the stomach, was determined. Each antibody was analyzed for five fields, in each of them the average number of cells with positive unit area response at ×200 magnification.

Turning to `CC(C)C(N)Cc1ccccc1` (centres unmarked) [Compound 3, 3-Methyl-1-phenylbutan-2-amine], in experiment [1], the “Amplitude of slow waves, Measured value” stood at 5.28 ± 0.33 mV; the “Amplitude of spike potentials, Measured value” turned out to be 2.61 ± 0.16 mV; the “Number of slow waves, Measured value” worked out at 4.90 ± 0.09 min⁻¹; the “Number of spike potentials, Measured value” is 48.22 ± 0.39 * min^−1. In addition, the “Changes in the membrane potential” value in experiment [1] (base activity taken as 100%, ↑ depolarization, ↓ hyperpolarization) amounted to 55%. Besides, in experiment [2], the “5-HT3 expression, Response to Compound” value is listed as “+++” and the “5-HT3 expression in SM preparations” value is “higher number of 5-HT3R positive cells per section; also recorded: increased intensity in 5-HT3 expression”.

As for `CC(=O)NC(Cc1ccccc1)C(C)C` (centres unmarked) [Compound 4a, N-(3-methyl-1-phenylbutan-2-yl)acetamide], in experiment [1], the “Amplitude of slow waves, Measured value” is on record as 4.32 ± 0.38 mV; the “Amplitude of spike potentials, Measured value” is given as 0 * mV; the “Number of slow waves, Measured value” came out at 4.72 ± 0.55 min⁻¹; the “Number of spike potentials, Measured value” is given as 0 * min^−1. The “effect on bioelectrical activity (slow waves, spike potentials)” value in experiment [1] (in words) is on record as “complete disappearance of the spike potentials”. In experiment [2], the “5-HT3 expression, Response to Compound” value is “−” and the “5-HT3 expression in SM preparations” value was “no modulation on the 5-HT3R expression; also recorded: no 5-HT3 expression observed”.
